One data set deals with BK channel (Homo sapiens, UniProt Q12791). Conditions: relative to Maxipost; cited from earlier work.
The subject of data set [1] is young adult CBA/CaJ mice. Briefly: Acoustic startle reflex (ASR) amplitude, startle input-output function, salicylate (SS) tinnitus model. On the procedure: (§1) SS can be administrated 2 hours before measuring the behavioral manifestations of tinnitus.
(§2) Behavioral assay: The presence of tinnitus may be indicated by a failure to respond to silence embedded in sound stimuli near the tinnitus frequency. A sound pulse-evoked acoustic startle reflex (ASR) is commonly used to determine if an animal can detect silent gaps in narrow-band noise and this method appears to detect tinnitus in humans. Failure of a first sound pulse to suppress a second sound pulse-evoked startle reflex is indicative of tinnitus. This ASR assay has a similar sensitivity for changes in gap detection to a behavioral conditioning paradigm in which animals are trained to response to gaps in noise. Elevations in the ASR amplitude have been linked to the presence of hyperacusis, a disorder often comorbid with tinnitus. Thus, the assay probed possible influences of BK channel function on both tinnitus and hyperacusis.
(§3) General Procedure. Mice underwent sequential assessment of the effect of treatment (baseline; sodium salicylate; sodium salicylate with BMS-191011). Baseline measures were acquired before sodium salicylate (SS) administration so that mice served as their own controls. Tinnitus was induced transiently by intraperitoneal (i.p.) injection of 250 mg/kg SS (concentration: 25 mg/mL 0.9% saline). SS induces tinnitus in humans, and SS-treated animals share markers of tinnitus with humans. Behavioral or neurophysiological manifestations of tinnitus were assessed 2 hours following SS injection, and were completed within 3.5 hours. Jastreboff et al. reported that after an i.p. injection of SS in rats, the maximum levels in blood serum occurred 1.5 hours later, while the maximum levels in the perilymph and spinal fluid reached maximum levels within 2-4 hours. However, behavioral manifestations of tinnitus are observed up to 48 hours following administration (cite). […]
Behavioral Assays. Behavioral assessment were performed as described previously (Longenecker and Galazyuk, 2011; Lowe and Walton, 2015), and as briefly outlined below. The animals were acclimated to the testing room by placing the home cage in the testing room 30 min prior to testing. The acoustic startle response (ASR), a transient motor response to a startle eliciting stimulus (SES), was converted to voltage by placing mice on a custom-built platform connected to piezoelectric transducers located inside a sound attenuated chamber. SESs were 20-ms Gaussian broadband noise bursts (1-ms rise/fall time), filtered at 500 Hz-40 kHz. To measure threshold and amplitude of the ASR, the intensity of the SES was varied between 55-115 dB SPL. Ten trials were run for each stimulus in order to acquire the startle input-output function.

In another data set the test system is CBA/CaJ mice. Briefly: Auditory brainstem response (ABR) recordings before and after SS. The procedure:
General Procedure. Mice underwent sequential assessment of the effect of treatment (baseline; sodium salicylate; sodium salicylate with BMS-191011). Baseline measures were acquired before sodium salicylate (SS) administration so that mice served as their own controls. Tinnitus was induced transiently by intraperitoneal (i.p.) injection of 250 mg/kg SS (concentration: 25 mg/mL 0.9% saline). SS induces tinnitus in humans, and SS-treated animals share markers of tinnitus with humans. Behavioral or neurophysiological manifestations of tinnitus were assessed 2 hours following SS injection, and were completed within 3.5 hours. Jastreboff et al. reported that after an i.p. injection of SS in rats, the maximum levels in blood serum occurred 1.5 hours later, while the maximum levels in the perilymph and spinal fluid reached maximum levels within 2-4 hours. However, behavioral manifestations of tinnitus are observed up to 48 hours following administration (cite). BMS-191011 (Sigma Aldrich) was administered i.p. (0.5 mg/kg) or topically (1 μL of 1-10 μM) at the dura over the auditory midbrain.
ABR Assays. To obtain an electrophysiological measure of auditory evoked activity in the auditory nerve and brainstem, ABR assays were performed as described previously (Longenecker and Galazyuk, 2011; Lowe and Walton, 2015), and as briefly outlined below. Animals were anesthetized with i.p. administration of ketamine (120 mg/kg) and xylazine (10 mg/kg). Respiration was monitored during testing and used to guide administration of supplemental anesthesia. Body temperature was kept constant at 37° C. using a feedback-controlled heating pad (Physitemp TCAT2-LV Controller, Clifton, NJ).
ABRs were recorded using BioSig software in a soundproof booth lined with echo-attenuating acoustic foam. ABRs were evoked by 256 tone burst stimuli. Tone bursts were 3 msec in duration (1-ms rise/fall time, alternating polarity) presented at 6, 12, 16, 20, 24, and 36 kHz at a rate of 29 per second, attenuated in 5 dB steps from 80 dB SPL to 15 dB below threshold or 5 dB SPL, whichever was lower. Threshold was determined by visual inspection as the lowest intensity level which produced a defined peak in two replicates. Peaks 1-5 (P1-5) were detected and measured in the ABR waveforms using custom designed MATLAB software.

For data set [2] the following is noted: in vivo; cited from earlier work.
In a further data set the test system is IC of awake CBA/CaJ mice. Briefly: Multi-channel neurophysiological recordings in the inferior colliculus (IC, auditory midbrain). It counts as in vivo, mouse. On the procedure:
IC neurophysiological recordings. Surgery and extracellular recordings were collected and analyzed by a method identical to a procedure used in a previous study. The right IC was located stereotaxically and exposed via a small (<1.0 mm) craniotomy. Prior to recording, chlorprothixene (Taractin®, 5-12 μl/g i.m.) was administered to prevent involuntary movement via inhibition of parasympathetic nerve impulses. The animal was then secured in a custom stereotaxic frame (Newport-Klinger) in a heated (34° C.) chamber lined with sound-absorbing foam (Sonex®). Multi-unit extracellular activity was recorded using vertically oriented single shank silicon acute penetrating 16-channel electrodes with an impedance ranging from 1.2 to 2.1 MΩ (Type-A, 3 mm×100 μm; NeuroNexus Technologies). Excitatory frequency response areas (eFRAs) from all active channels were acquired simultaneously using 2 to 64 kHz, 25 ms (5 ms rise/fall) tone burst stimuli presented at 0 to 80 dB SPL in 5 dB steps. A total of 2125 frequency and intensity combinations were presented pseudo-randomly five times each at a rate of 10/s. The change in the driven response due to treatment was assessed via maximum number of spikes per stimulus within the boundary of each eFRA.

The subject of a further data set is animals. Particulars: cited from earlier work.
Data set [3] relates to young adult CBA/CaJ mice. Briefly: Gap pre-pulse inhibition of the acoustic startle (GPIAS), Gap-PPI, SS-induced tinnitus. The procedure: as §1, §2, §3
Modification of the ASR by stimuli placed before the SES is typically observed as a reduction in startle amplitude or pre-pulse inhibition (Hoffman and Ison, 1980; Ison and Hoffman, 1983). To probe the tinnitus percept (Longenecker and Galazyuk, 2012; Turner, 2007), Turner and colleagues used a relatively long silent gap imbedded in an ongoing narrow band noise (NBN) placed before the SES; various center frequencies of the NBN were used. The paradigm as a whole is referred to as the gap pre-pulse inhibition of the acoustic startle (GPIAS). The silent gap is demonstrably perceived; but, if the tinnitus pitch is in the region of the pitch of the ongoing NBN, the animal will presumably be impaired at detecting the gap (Turner, et al 2007). The presence of tinnitus is then indicated by a reduction in pre-pulse inhibition to the gap stimulus, or Gap-PPI, when the gap carrier pitch is near the tinnitus frequency (Turner, 2007). To perform the GPIAS assay, in this study the SES (presented at 100 dB SPL) was preceded by a 150-ms, 70-dB narrow band noise (⅓ octave) centered at 6, 12, 16, 20, or 24 kHz. During gap trials, a 50-ms silent gap was inserted 100 ms before the SES. Ten trials of each stimulus were presented to obtain the Gap PPI function.

The conditions of data set [4]: cited from earlier work.
Where [5] appears, read: BMS-191011 after SS, 12, 16, 20, 24 kHz tones.
Setting [6] is: BMS-191011 after SS, 60 dB tones.
Setting [7] is: SS 250 mg/kg i.p., 12-20 kHz stimuli.
The mark [8] stands for this setting: rats, after i.p. injection, Jastreboff et al.

“Also recorded” adds a separate entry of the source.

BK channel, sequence (Q12791 whole entry, species assumed): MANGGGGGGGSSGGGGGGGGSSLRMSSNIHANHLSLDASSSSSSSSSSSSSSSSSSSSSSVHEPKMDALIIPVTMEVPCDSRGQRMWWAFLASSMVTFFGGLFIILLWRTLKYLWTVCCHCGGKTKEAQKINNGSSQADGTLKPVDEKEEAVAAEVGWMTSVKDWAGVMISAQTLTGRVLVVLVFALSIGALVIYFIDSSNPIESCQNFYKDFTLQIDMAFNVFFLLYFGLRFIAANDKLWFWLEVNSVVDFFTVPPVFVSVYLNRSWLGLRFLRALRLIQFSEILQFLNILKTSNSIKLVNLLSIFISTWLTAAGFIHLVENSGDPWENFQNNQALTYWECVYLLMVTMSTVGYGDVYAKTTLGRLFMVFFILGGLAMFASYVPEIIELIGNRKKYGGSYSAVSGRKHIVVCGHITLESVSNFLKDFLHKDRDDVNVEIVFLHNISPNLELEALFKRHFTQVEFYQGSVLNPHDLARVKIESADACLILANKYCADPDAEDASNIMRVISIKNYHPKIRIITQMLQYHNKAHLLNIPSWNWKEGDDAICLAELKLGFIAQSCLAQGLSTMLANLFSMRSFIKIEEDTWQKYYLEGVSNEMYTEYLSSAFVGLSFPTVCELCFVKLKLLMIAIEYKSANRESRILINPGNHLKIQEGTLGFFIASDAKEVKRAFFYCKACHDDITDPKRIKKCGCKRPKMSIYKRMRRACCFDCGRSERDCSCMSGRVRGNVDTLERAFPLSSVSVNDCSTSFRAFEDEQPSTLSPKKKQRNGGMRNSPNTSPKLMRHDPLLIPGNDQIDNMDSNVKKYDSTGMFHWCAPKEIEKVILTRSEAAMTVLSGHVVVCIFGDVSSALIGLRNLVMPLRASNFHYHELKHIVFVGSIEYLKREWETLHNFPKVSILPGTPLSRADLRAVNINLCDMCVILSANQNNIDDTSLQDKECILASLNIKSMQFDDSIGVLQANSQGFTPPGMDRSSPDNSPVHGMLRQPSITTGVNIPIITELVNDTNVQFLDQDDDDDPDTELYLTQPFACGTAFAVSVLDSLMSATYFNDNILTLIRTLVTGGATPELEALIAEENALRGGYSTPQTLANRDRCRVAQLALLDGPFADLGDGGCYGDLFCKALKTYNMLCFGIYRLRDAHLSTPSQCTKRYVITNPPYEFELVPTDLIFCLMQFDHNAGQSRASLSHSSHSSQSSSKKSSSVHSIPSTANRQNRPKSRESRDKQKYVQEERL

For the compound `O=c1oc(-c2ccc(C(F)(F)F)cc2)nn1Cc1cc(Cl)ccc1O` [BMS-191011, 3-[(5-chloro-2-hydroxyphenyl)methyl]-5-[4-(trifluoromethyl)phenyl]-1,3,4-oxadiazol-2(3H)-one], the “affinity and specificity for the BK channel compared with Maxipost” value at BK channel is “higher affinity and specificity”. The “ASR amplitude after SS treatment” value with young adult CBA/CaJ mice [1] (Example 1, mouse model, SS 2 hours before, BMS191011 i.p. 5 mg/kg) was “did not appear to return this toward baseline”. In the data set on young adult CBA/CaJ mice [1] (Example 2, BMS-191011 i.p. after SS 250 mg/kg, 1 hour before testing, N=6), the “SS-induced increase in startle amplitude intensity-response function” value is listed as “did not reverse the effects of SS administration; also recorded: not significantly altered”. Moreover, the “startle amplitudes, compound administered alone” value in the data set on young adult CBA/CaJ mice [1] (Example 2, without SS) is reported as “did not alter startle amplitudes”. In the data set with CBA/CaJ mice (BMS-191011 after SS), the “effect of SS on ABR P2 amplitudes” value is reported as “did not substantively alter; also recorded: did not significantly alter the effect of SS treatment” and the “effect of SS on ABR P4 amplitudes” value is given as “did not substantively alter; also recorded: did not significantly alter the effect of SS treatment”. Further, the “SS-induced ABR threshold shift” value in the data set on CBA/CaJ mice (BMS-191011 after SS, 1 hour before ABR recordings) is “did not significantly alter; also recorded: not further altered”. For the same compound, in the data set on CBA/CaJ mice (setting [5]), the “SS-induced decrease in ABR P1 amplitudes” value is “did not significantly alter the effect of SS treatment” and the “SS-induced shift in ABR P1 latencies” value is recorded as “did not significantly alter; also recorded: minimally altered the effect of SS treatment”. Further, in the data set with CBA/CaJ mice (setting [6]), the “SS-increased P2/P1 amplitude ratio” value is recorded as “did not substantively alter; also recorded: unaltered” and the “SS-increased P4/P1 amplitude ratio” value is listed as “unaltered”. Moreover, the brain availability result in data set [2] was “high brain-availability”. Also, the “sound-evoked activity in the IC” value with IC of awake CBA/CaJ mice (Example 1, control mice, local administration (topical application over the dura)) is on record as “suppressed sound-evoked activity”. Further, in the data set on IC of awake CBA/CaJ mice (mice not given SS, topical 1 μL of 1-10 μM), the “spontaneous activity (spontaneous spikes per 25 ms)” value is listed as “remained unchanged; also recorded: no significant change”. In addition, in the data set with IC of awake CBA/CaJ mice (mice not given SS, topical 1 μL of 1-10 μM, hours 2-4 after treatment), the “reduction of sound-evoked activity (maximum number of spikes evoked by a tone)” value is listed as around 50%. In addition, in the data set on IC of awake CBA/CaJ mice (mice not given SS, topical at the dura, 1 μL of a 1-10 μM solution), the “time after administration by which suppression of sound-evoked activity (maximal spikes per 25 ms stimulus) is significant” value was at most 1 h. In addition, the “cardiac effects (heart rate, blood pressure)” value in the data set on animals (animals) is “without signs of negative cardiac effects”. Moreover, the tolerability in animals entry with animals (in vivo) is listed as “well-tolerated”. Moreover, the “Gap-PPI for stimuli within the tinnitus percept” value in the data set with young adult CBA/CaJ mice [3] (Example 1, 16 kHz region, after SS, BMS191011 i.p. 5 mg/kg) was “returned Gap-PPI to baseline levels”. The “% Gap PPI, 12-20 kHz carriers” value in the data set on young adult CBA/CaJ mice [3] (Example 2, BMS-191011 after SS 250 mg/kg, N=6) is “returned SS-suppressed Gap-PPIs to baseline levels”. The “Gap-PPI, 24 kHz carrier” value with young adult CBA/CaJ mice [3] (Example 2, BMS-191011 after SS, outside expected tinnitus range) is recorded as “no effect on Gap-PPI”. Further, the “Gap-PPI functions, compound administered alone” value in the data set with young adult CBA/CaJ mice [3] (Example 2, without SS) was “not significantly altered from baseline”.
For `O=C([O-])c1ccccc1O.[Na+]` [SS, sodium salicylate], the “startle amplitude intensity-response function relative to baseline” value in the data set with young adult CBA/CaJ mice [1] (SS 250 mg/kg i.p. alone) is listed as “increased the intensity-response function; also recorded: significant increase in startle amplitude”. Besides, in the data set with CBA/CaJ mice (SS 250 mg/kg i.p.), the “ABR P1 amplitudes relative to baseline” value was “significantly reduced P1 amplitudes” and the “ABR P1 latencies relative to baseline” value is reported as “longer P1 latencies; also recorded: significantly delayed P1 latencies”. In the data set on CBA/CaJ mice (setting [7]), the “P2/P1 amplitude ratio relative to baseline” value is “substantially increased; also recorded: significantly increased the P2/P1 ratio” and the “P4/P1 amplitude ratio relative to baseline” value is “still increased; also recorded: significantly increased the P4/P1 ratio”. Besides, the “ABR P2 amplitude relative to baseline” value in the data set on CBA/CaJ mice (SS 250 mg/kg i.p., 12-20 kHz, higher intensities (60-80 dB SPL)) is “either increased or stayed the same; also recorded: increased P2 amplitude at 80 dB”. For the same compound, the “increase in ABR thresholds” value in the data set on CBA/CaJ mice (SS 250 mg/kg i.p., across the frequency spectrum) is given as around 20 dB. In addition, in data set [4] (following administration), the “time for which behavioral manifestations of tinnitus are observed after administration” value is “up to 48 hours”. In addition, in data set [4] (setting [8]), the “time of maximum levels in blood serum” value is 1.5 h; the “time of maximum levels in perilymph and spinal fluid” value was 2 to 4 h. In the data set with young adult CBA/CaJ mice [3] (SS 250 mg/kg i.p. alone), the “Gap-PPI relative to baseline, 12-20 kHz carrier” value is “reduced Gap-PPI; also recorded: significant decrease in % Gap PPI” and the “Gap-PPI, 24 kHz carrier” value is given as “did not influence Gap-PPI”.

These data come from patent publication US12194026B2, “Drug for treating tinnitus” (UNIVERSITY OF SOUTH FLORIDA, priority 2018, dated 2025).
